The text below walks through data of patent US6953789B2, “Thiol compounds, their production and use” (Takeda Chemical Industries, Ltd., priority 1998, dated 2005).

The term IC50 denotes the concentration that inhibits the measured activity by half.

The structures appear in SMILES notation. Bounds are passed on as bounds.

The target in the first assay is T1, recombinant human MMP-13 (Homo sapiens, UniProt P45452).
T1 construct: made in house; host or cells: baculovirus (pBlueBac4 / Bac-N-Blue; virus made in Sf9), expressed in High-Five insect cells; culture supernatant used
Nature of the assay: Assay of MMP-13 inhibiting activity (fluorogenic peptide substrate). It is filed as biochemical. The note with it: Table 3; 37° C., 2 hours. The procedure, abridged: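 Baculovirus-expressed human MMP-13 (High-Five cell supernatant) in pH 7.5 Tris buffer with 200 mM NaCl, 20 mM CaCl2, 0.1% Brij 35, 1 mM 2-mercaptoethanol; reaction started with 40 μM (stock) MOCAc-PLGL-A2pr(DNP)-AR-NH2, 2 h at 37 °C, stopped at pH 3.0. Fluorescence 330/405 nm; IC50 versus no-compound control.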
For `O=C(NCS[C@@H]1CC(=O)N(Cc2ccc(Oc3ccccc3)cc2)C1)c1ccccc1` [Example 102, N-({[(3R)-5-oxo-1-(4-phenoxybenzyl)pyrrolidinyl]sulfanyl}methyl)benzamide], the IC50 is 100 nM.

As to `CCOC(=O)NCS[C@@H]1CC(=O)N(Cc2ccc(Oc3ccccc3)cc2)C1` [Example 103, Ethyl {[(3R)-5-oxo-1-(4-phenoxybenzyl)pyrrolidinyl]sulfanyl}methylcarbamate], the IC50 worked out at 300 nM.

Take `O=C1C[C@@H](SCN2C(=O)c3ccccc3C2=O)CN1Cc1ccc(Oc2ccccc2)cc1` [Example 104, 2-({[(3R)-5-oxo-1-(4-phenoxybenzyl)pyrrolidinyl]sulfanyl}methyl)-1H-isoindole-1,3-(2H)-dione]: the IC50 is 200 nM.

As to `O=C1CC(S[C@@H]2CC(=O)N(Cc3ccc(Oc4ccccc4)cc3)C2)C(=O)N1` (stereo partly drawn) [Example 105, 3-{[(3R)-5-Oxo-1-(4-phenoxybenzyl)pyrrolidinyl]sulfanyl}-2,5-pyrrolidinedione], the IC50 is 40 nM.

In the case of `CN1C(=O)CC(S[C@@H]2CC(=O)N(Cc3ccc(Oc4ccccc4)cc3)C2)C1=O` (stereo partly drawn) [Example 106, 1-Methyl-3-{[(3R)-5-oxo-1-(4-phenoxybenzyl)pyrrolidinyl]sulfanyl}-2,5-pyrrolidinedione], the IC50 came out at 20 nM.

`CCOC(=O)S[C@@H]1CC(=O)N(Cc2ccc(Oc3ccccc3)cc2)C1` [Example 107, O-Ethyl S-[(3R)-5-oxo-1-(4-phenoxybenzyl)pyrrolidinyl]carbanothioate]: the IC50 stood at 30 nM.

Still in this assay, the particulars now being: Table 9; 37° C., 2 hours.
With `O=C1CC(S)CN1Cc1ccc(Oc2ccccc2F)cc1` (stereo not shown) [Example 113, 4-Mercapto-1-[4-(2′-fluorophenoxy)benzyl]pyrrolidin-2-one], the half-inhibitory concentration (IC50) is 4 nM.

Turning to `CC(=O)SC1CC(=O)N(Cc2ccc(Oc3cccc(F)c3)cc2)C1` (stereo not shown) [Example 114, 4-Acetylthio-1-[4-(3′-fluorophenoxy)benzyl]pyrrolidin-2-one], the IC50 was 10 nM.

As to `O=C1CC(S)CN1Cc1ccc(Oc2cccc(F)c2)cc1` (stereo not shown) [Example 115, 4-Mercapto-1-[4-(3′-fluorophenoxy)benzyl]pyrrolidin-2-one], the IC50 came to 4 nM.

Consider `CC(=O)S[C@H]1CC(=O)N(Cc2ccc(Oc3ccc(F)cc3)cc2)C1` [Example 116, (S)-4-Acethylthio-1-[4-(4′-fluorophenoxy)benzyl)pyrrolidin-2-one], for which the IC50 is 7000 nM.

On to `CC(=O)S[C@@H]1CC(=O)N(Cc2ccc(Oc3ccc(F)cc3)cc2)C1` [Example 117, (R)-4-Acethylthio-1-[4-(4′-fluorophenoxy)benzyl]pyrrolidin-2-one], for which the IC50 was 7 nM.

As for `O=C1C[C@@H](S)CN1Cc1ccc(Oc2ccc(F)cc2)cc1` [Example 118, (R)-4-Mercapto-1-[4-(4′-fluorophenoxy)benzyl]pyrrolidin-2-one], the IC50 came out at 2 nM.

On to `CC(=O)SC1CC(=O)N(Cc2ccc(Oc3ccc(F)cc3F)cc2)C1` (stereo not shown) [Example 119, 4-Acetylthio-1-[4-(2′,4′-difluorophenoxy)benzyl]pyrrolidin-2-one], for which the concentration for half-maximal inhibition (IC50) is 10 nM.

Regarding `O=C1CC(S)CN1Cc1ccc(Oc2ccc(F)cc2F)cc1` (stereo not shown) [Example 120, 4-Mercapto-1-[4-(2′,4′-difluorophenoxy)benzyl]pyrrolidin-2-one], the concentration for half-maximal inhibition (IC50) amounted to 7 nM.

In the case of `CC(=O)SC1CC(=O)N(Cc2ccc(Oc3ccc(F)c(F)c3)cc2)C1` (stereo not shown) [Example 121, 4-Acetylthio-1-[4-(3′,4′-difluorophenoxy)benzyl]pyrrolidin-2-one], the half-maximal inhibitory concentration (IC50) was determined as 20 nM.

For `O=C1CC(S)CN1Cc1ccc(Oc2ccc(F)c(F)c2)cc1` (stereo not shown) [Example 122, 4-Mercapto-1-[4-(3′,4′-difluorophenoxy)benzyl]pyrrolidin-2-one], the IC50 stood at 20 nM.

On to `CC(=O)S[C@@H]1CC(=O)N(Cc2ccc(Oc3ccc(C)cc3)cc2)C1` [Example 123, (R)-4-Acethylthio-1-[4-(4′-methylphenoxy)benzyl]pyrrolidin-2-one], for which the concentration for half-maximal inhibition (IC50) stood at 8.9 nM.

With `CCc1ccc(Oc2ccc(CN3C[C@H](SC(C)=O)CC3=O)cc2)cc1` [Example 124, (R)-4-Acethylthio-1-[4-(4′-ethylphenoxy)benzyl]pyrrolidin-2-one], the half-maximal inhibitory concentration (IC50) came to 7 nM.

On to `CC(=O)S[C@@H]1CC(=O)N(Cc2ccc(Oc3ccc(C)cc3)cc2)C1` [Example 127, (R)-4-Acetylthio-1-[4-(4′-methylphenoxy)benzyl]pyrrolidin-2-one], for which the half-inhibitory concentration (IC50) turned out to be 10 nM.

As for `Cc1ccc(Oc2ccc(CN3CC(S)CC3=O)cc2)cc1` (stereo not shown) [Example 128, 4-Mercapto-1-[4-(4′-methylphenoxy)benzyl]pyrrolidin-2-one], the IC50 was 7 nM.

As to `CC(=O)SC1CC(=O)N(Cc2ccc(Oc3ccc(C(F)(F)F)cc3)cc2)C1` (stereo not shown) [Example 129, 4-Acetylthio-1-[4-(4′-(trifluoromethyl)phenoxy)benzyl]pyrrolidin-2-one], the concentration for half-maximal inhibition (IC50) stood at 30 nM.

On to `O=C1CC(S)CN1Cc1ccc(Oc2ccc(C(F)(F)F)cc2)cc1` (stereo not shown) [Example 130, 4-Mercapto-1-{4-[4′-(trifluoromethyl)phenoxy]benzyl}pyrrolidin-2-one], for which the IC50 came out at 10 nM.

With `CCOC(=O)c1ccc(Oc2ccc(CN3CC(SC(C)=O)CC3=O)cc2)cc1` (stereo not shown) [Example 131, 4-Acetylthio-1-[4-(4′ethoxycarbonylphenoxy)benzyl]pyrrolidin-2-one], the IC50 was found to be 20 nM.

Turning to `CCOC(=O)c1ccc(Oc2ccc(CN3CC(S)CC3=O)cc2)cc1` (stereo not shown) [Example 132, 4-Mercapto-1-[4-(4′-ethoxycarbonylphenoxy)benzyl]pyrrolidin-2-one], the IC50 was determined as 3.3 nM.

For `CC(=O)SC1CC(=O)N(Cc2ccc(Oc3ccc(C(=O)O)cc3)cc2)C1` (stereo not shown) [Example 133, 4-Acetylthio-1-[4-(4′-carboxyphenoxy)benzyl]pyrrolidin-2-one], the half-maximal inhibitory concentration (IC50) was greater than 10000 nM.

`CC(=O)SC1CC(=O)N(Cc2ccc(Oc3ccc(C(N)=O)cc3)cc2)C1` (stereo not shown) [Example 134, 4-Acetylthio-1-[4-(4′-aminocarbonylphenoxy)benzyl]pyrrolidin-2-one]: the IC50 turned out to be 29 nM.

For the molecule `NC(=O)c1ccc(Oc2ccc(CN3CC(S)CC3=O)cc2)cc1` (stereo not shown) [Example 135, 4-Mercapto-1-[4-(4′-aminocarbonylphenoxy)benzyl]pyrrolidin-2-one], the 50% inhibitory concentration (IC50) is 9.2 nM.

As to `CC(=O)SC1CC(=O)N(Cc2ccc(Oc3ccc(O)cc3)cc2)C1` (stereo not shown) [Example 136, 4-Acetylthio-1-[4-(4′-hydroxyphenoxy)benzyl]pyrrolidin-2-one], the IC50 came out at 9 nM.

With `O=C1CC(S)CN1Cc1ccc(Oc2ccc(O)cc2)cc1` (stereo not shown) [Example 137, 4-Mercapto-1-[4-(4′-hydroxyphenoxy)benzyl]pyrrolidin-2-one], the IC50 came to 3 nM.

Take `CCOc1ccc(Oc2ccc(CN3CC(SC(C)=O)CC3=O)cc2)cc1` (stereo not shown) [Example 138, 4-Acetylthio-1-[4-(4′-ethoxyphenoxy)benzyl]pyrrolidin-2-one]: the IC50 is 20 nM.

In the case of `CCOc1ccc(Oc2ccc(CN3CC(S)CC3=O)cc2)cc1` (stereo not shown) [Example 139, 4-Mercapto-1-[4-(4′-ethoxyphenoxy)benzyl]pyrrolidin-2-one], the concentration for half-maximal inhibition (IC50) was determined as 6 nM.

In the case of `CC(=O)SC1CC(=O)N(Cc2ccc(Oc3ccc(OC(F)(F)F)cc3)cc2)C1` (stereo not shown) [Example 140, 4-Acetylthio-1-{4-[4′-(trifluoromethoxy)phenoxy]benzyl}pyrrolidin-2-one], the concentration for half-maximal inhibition (IC50) is 20 nM.

Regarding `O=C1CC(S)CN1Cc1ccc(Oc2ccc(OC(F)(F)F)cc2)cc1` (stereo not shown) [Example 141, 4-Mercapto-1-{4-[4′-(trifluoromethoxy)phenoxy]benzyl}pyrrolidin-2-one], the IC50 worked out at 10 nM.

With `CC(=O)SC1CC(=O)N(Cc2ccc(Oc3ccc([N+](=O)[O-])cc3)cc2)C1` (stereo not shown) [Example 142, 4-Acetylthio-1-[4-(4′-nitrophenoxy)benzyl]pyrrolidin-2-one], the IC50 stood at 53 nM.

Consider `O=C1CC(S)CN1Cc1ccc(Oc2ccc([N+](=O)[O-])cc2)cc1` (stereo not shown) [Example 143, 4-Mercapto-1-[4-(4′-nitrophenoxy)benzyl]pyrrolidin-2-one], for which the concentration for half-maximal inhibition (IC50) stood at 11 nM.

For `CC(=O)Nc1ccc(Oc2ccc(CN3CC(SC(C)=O)CC3=O)cc2)cc1` (stereo not shown) [Example 144, 4-Acetylthio-1-[4-(4′-acetoaminophenoxy)benzyl]pyrrolidin-2-one], the 50% inhibitory concentration (IC50) came to 2.7 nM.

For `CC(=O)Nc1ccc(Oc2ccc(CN3CC(S)CC3=O)cc2)cc1` (stereo not shown) [Example 145, 4-Mercapto-1-[4-(4′-acetoaminophenoxy)benzyl]pyrrolidin-2-one], the IC50 is 1.3 nM.

Take `CC(=O)SC1CC(=O)N(Cc2ccc(Oc3ccc(NS(C)(=O)=O)cc3)cc2)C1` (stereo not shown) [Example 146, 4-Acetylthio-1-[4-(4′-methylsulfonylaminophenoxy)benzyl]pyrrolidin-2-one]: the IC50 amounted to 25 nM.

Regarding `CS(=O)(=O)Nc1ccc(Oc2ccc(CN3CC(S)CC3=O)cc2)cc1` (stereo not shown) [Example 147, 4-Mercapto-1-[4-(4′-methylsulfonylaminophenoxy)benzyl]pyrrolidin-2-one], the IC50 came to 1.2 nM.

`CCNC(=O)Nc1ccc(Oc2ccc(CN3CC(SC(C)=O)CC3=O)cc2)cc1` (stereo not shown) [Example 148, 4-Acetylthio-1-[4-(4′-ethylaminocarbonylaminophenoxy)benzyl]pyrrolidin-2-one]: the IC50 came to 25 nM.

Staying with this assay, now noted: Table 12; 37° C., 2 hours.
`CC(=O)SC1CCC(=O)N(Cc2ccc(Oc3ccccc3)cc2)C1` (stereo not drawn) [Example 108, S-[6-Oxo-1-(4-phenoxybenzyl)-3-piperidinyl]ethanethioate]: the IC50 worked out at 300 nM.

Take `O=C1CCC(S)CN1Cc1ccc(Oc2ccccc2)cc1` (stereo not shown) [Example 109, 1-(4-Phenoxybenzyl)-5-sulfanyl-2-piperidinone]: the IC50 was 60 nM.

`O=C1CC(S)CCN1Cc1ccc(Oc2ccccc2)cc1` (stereo not shown) [Example 111, 1-(4-Phenoxybenzyl)-4-sulfanyl-2-piperidinone]: the IC50 came out at 17 nM.
